Measurements: patent US20090304692A1, “TRIAZINE COMPOUNDS AS PI3 KINASE AND MTOR INHIBITORS” (Wyeth, priority 2008, published 2009)
pIC50: −log10 of the molar value. Several values for one entry are separate records, joined by “and”; a condition that tells them apart may be missing. Identical values can stand only once. Like-named read-outs stand apart in the source and are kept apart here.

Legend:
[1] = system: human prostate LNCap tumor cell line; assay: In vitro cell culture growth assay (MTS), LNCap; details: Homo sapiens, LNCaP, 72 h, read-out: IC50 LNCap
[2] = target: Human mTOR (FLAG-TOR) (Homo sapiens, UniProt P42345); assay: mTOR kinase assay (DELFIA format, purified enzyme); format: biochemical; details: read-out: IC50 mTOR
[3] = target: PI3K-γ (Homo sapiens, UniProt P48736); assay: PI3K-gamma fluorescence polarization assay
[4] = target: PI3K-α (Homo sapiens, UniProt P42336); assay: PI3K-alpha fluorescence polarization assay; details: read-out: IC50 PI3Kα
Sequence of PI3K-α (P42336 whole entry, species assumed): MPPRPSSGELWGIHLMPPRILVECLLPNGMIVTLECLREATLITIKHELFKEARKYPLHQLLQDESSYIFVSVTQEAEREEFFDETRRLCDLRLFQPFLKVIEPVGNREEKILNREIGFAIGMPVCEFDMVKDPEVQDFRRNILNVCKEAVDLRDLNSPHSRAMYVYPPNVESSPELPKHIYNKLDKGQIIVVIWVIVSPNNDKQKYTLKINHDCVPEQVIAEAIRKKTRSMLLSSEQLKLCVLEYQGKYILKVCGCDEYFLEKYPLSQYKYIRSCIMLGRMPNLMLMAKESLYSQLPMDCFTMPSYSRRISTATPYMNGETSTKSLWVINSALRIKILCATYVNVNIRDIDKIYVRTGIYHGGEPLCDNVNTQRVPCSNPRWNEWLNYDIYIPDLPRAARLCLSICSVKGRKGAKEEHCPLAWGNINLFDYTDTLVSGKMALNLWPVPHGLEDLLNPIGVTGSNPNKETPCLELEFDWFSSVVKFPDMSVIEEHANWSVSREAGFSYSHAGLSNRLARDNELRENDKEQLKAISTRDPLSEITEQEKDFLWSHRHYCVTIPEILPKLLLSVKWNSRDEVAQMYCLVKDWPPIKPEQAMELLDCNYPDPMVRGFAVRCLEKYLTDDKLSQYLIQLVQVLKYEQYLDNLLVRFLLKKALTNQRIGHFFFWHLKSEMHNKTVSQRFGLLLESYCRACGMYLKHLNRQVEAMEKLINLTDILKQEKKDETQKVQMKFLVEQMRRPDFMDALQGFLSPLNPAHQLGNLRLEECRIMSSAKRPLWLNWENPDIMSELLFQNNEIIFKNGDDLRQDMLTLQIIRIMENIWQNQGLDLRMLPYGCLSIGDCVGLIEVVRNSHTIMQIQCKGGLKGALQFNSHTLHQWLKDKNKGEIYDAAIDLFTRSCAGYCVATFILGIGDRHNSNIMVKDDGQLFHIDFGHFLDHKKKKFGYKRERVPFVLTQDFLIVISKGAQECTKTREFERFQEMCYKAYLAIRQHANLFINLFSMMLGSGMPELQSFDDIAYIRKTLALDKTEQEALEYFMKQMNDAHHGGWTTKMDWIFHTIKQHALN
Sequence of PI3K-α (P27986 whole entry partner, species assumed): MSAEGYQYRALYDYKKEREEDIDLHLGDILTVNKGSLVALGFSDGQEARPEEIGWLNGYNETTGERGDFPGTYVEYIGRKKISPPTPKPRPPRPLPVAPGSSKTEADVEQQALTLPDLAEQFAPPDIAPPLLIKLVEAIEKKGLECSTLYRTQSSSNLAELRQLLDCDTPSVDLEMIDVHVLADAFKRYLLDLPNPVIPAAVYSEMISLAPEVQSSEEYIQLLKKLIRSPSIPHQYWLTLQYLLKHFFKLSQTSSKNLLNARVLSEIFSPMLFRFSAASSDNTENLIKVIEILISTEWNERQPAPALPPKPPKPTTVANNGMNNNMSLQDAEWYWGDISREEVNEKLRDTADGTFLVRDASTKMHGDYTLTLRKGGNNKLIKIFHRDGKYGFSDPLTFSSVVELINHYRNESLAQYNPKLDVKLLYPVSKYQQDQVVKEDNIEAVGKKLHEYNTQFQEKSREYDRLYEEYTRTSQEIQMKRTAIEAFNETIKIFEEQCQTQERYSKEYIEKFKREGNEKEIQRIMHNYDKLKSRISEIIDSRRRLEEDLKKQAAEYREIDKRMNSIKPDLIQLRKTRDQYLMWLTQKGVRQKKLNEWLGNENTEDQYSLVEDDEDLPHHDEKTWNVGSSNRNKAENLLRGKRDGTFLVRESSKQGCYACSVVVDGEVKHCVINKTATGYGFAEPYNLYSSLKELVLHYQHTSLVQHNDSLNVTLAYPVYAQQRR

Sequence of Human mTOR (FLAG-TOR) (P42345 1360-2549 limits assumed): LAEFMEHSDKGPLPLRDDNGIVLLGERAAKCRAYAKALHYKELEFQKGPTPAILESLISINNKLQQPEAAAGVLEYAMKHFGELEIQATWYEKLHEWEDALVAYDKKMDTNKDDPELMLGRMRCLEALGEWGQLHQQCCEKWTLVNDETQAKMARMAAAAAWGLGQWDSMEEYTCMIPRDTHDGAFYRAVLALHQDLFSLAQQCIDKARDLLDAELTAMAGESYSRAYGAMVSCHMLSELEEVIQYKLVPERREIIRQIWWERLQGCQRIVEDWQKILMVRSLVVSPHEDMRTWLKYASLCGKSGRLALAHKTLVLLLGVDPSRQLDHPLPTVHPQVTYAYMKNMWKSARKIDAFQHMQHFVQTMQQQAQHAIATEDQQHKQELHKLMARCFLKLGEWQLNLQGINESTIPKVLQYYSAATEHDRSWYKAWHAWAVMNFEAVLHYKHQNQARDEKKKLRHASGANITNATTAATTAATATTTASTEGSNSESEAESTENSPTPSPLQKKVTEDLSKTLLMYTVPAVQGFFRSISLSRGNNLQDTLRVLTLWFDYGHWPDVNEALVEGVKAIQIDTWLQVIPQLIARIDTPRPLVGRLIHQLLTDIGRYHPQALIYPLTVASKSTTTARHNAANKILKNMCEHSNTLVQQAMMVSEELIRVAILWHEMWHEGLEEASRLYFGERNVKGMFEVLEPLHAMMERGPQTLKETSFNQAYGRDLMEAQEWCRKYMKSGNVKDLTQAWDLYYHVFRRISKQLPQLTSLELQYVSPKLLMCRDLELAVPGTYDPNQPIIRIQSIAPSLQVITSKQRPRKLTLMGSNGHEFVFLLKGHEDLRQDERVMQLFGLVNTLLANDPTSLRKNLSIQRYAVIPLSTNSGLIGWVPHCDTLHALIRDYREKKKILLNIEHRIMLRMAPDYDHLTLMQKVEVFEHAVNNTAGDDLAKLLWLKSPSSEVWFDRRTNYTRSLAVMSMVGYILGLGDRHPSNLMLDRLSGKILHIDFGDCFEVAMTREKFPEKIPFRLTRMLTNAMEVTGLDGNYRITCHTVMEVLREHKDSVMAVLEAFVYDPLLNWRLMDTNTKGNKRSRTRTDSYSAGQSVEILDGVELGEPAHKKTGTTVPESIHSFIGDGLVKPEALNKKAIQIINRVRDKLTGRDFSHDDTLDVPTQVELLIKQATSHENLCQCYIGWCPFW
Sequence of PI3K-γ (P48736 whole entry, species assumed): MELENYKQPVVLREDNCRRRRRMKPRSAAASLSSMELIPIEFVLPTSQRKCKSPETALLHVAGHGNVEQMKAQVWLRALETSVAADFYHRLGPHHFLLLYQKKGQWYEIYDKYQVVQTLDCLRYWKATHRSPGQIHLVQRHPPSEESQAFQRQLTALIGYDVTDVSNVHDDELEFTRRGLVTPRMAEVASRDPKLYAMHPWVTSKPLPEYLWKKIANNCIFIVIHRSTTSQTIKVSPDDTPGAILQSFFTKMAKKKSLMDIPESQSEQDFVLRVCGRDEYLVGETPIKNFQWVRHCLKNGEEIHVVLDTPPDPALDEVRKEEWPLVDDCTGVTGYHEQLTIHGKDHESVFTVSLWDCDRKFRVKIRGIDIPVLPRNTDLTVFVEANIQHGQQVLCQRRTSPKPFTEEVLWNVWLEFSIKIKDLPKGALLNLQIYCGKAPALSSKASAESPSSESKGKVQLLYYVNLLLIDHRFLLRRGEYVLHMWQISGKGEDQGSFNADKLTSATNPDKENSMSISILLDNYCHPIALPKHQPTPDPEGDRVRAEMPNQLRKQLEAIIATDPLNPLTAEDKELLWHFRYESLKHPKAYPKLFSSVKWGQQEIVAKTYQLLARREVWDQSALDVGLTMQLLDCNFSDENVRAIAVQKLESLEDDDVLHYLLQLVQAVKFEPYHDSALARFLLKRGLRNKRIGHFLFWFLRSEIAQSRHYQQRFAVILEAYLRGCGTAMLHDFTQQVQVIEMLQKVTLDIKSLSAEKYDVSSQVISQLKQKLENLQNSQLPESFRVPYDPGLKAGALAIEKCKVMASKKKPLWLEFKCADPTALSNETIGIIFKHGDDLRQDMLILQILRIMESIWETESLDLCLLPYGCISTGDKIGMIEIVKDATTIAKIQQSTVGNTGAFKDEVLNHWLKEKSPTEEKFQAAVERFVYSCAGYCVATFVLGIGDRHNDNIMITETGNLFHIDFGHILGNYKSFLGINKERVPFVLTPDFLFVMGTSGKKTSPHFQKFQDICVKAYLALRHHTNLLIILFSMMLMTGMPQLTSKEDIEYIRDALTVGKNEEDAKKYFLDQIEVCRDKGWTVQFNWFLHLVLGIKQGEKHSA

pIC50 [1] | pIC50 [2] | pIC50 ([3]; read-out: IC50 PI3Kγ) | pIC50 [4] | SMILES | pIC50 [3]
6.60 | 8.44 |  | 5.72 | C[C@@H]1COCCN1c1nc(-c2ccc(NC(=O)Nc3cccnc3)cc2)nc(N2C[C@@H]3C[C@H]2CO3)n1 [Example 411, 1-(4-(4-((1S,4S)-2-oxa-5-azabicyclo[2.2.1]heptan-5-yl)-6-((R)-3-methylmorpholino)-1,3,5-triazin-2-yl)phenyl)-3-(pyridin-3-yl)urea] | < 5.00
7.60 | 8.14 | 5.13 | 5.91 | C[C@@H]1COCCN1c1nc(-c2ccc(NC(=O)Nc3ccc(N4CCN(C)CC4)cc3)cc2)nc(N2C[C@@H]3C[C@H]2CO3)n1 [Example 412, 1-(4-(4-((1S,4S)-2-oxa-5-azabicyclo[2.2.1]heptan-5-yl)-6-((R)-3-methylmorpholino)-1,3,5-triazin-2-yl)phenyl)-3-(4-(4-methylpiperazin-1-yl)phenyl)urea] | 
6.52 | 7.92 | 6.11 | 6.31 | CN(C)CC(=O)N1CCN(c2nc(-c3ccc(NC(=O)Nc4ccncc4)cc3)nc(N3CC4CCC(C3)O4)n2)CC1 [Example 112, 1-(4-{4-[4-(N,N-dimethylglycyl)piperazin-1-yl]-6-(8-oxa-3-azabicyclo[3.2.1]oct-3-yl)-1,3,5-triazin-2-yl}phenyl)-3-pyridin-4-ylurea] | 
6.40 | 7.80 | 5.31 | 5.64 | O=C(Nc1ccc(-c2nc(NCCN3CCOCC3)nc(N3CC4CCC(C3)O4)n2)cc1)Nc1cccnc1 [Example 155, 1-(4-{4-[(2-morpholin-4-ylethyl)amino]-6-(8-oxa-3-azabicyclo[3.2.1]oct-3-yl)-1,3,5-triazin-2-yl}phenyl)-3-pyridin-3-ylurea] | 
6.96 | 8.64 | 5.25 | 6.08 | C[C@@H]1COCCN1c1nc(-c2ccc(NC(=O)Nc3ccncc3)cc2)nc(N2C[C@@H]3C[C@H]2CO3)n1 [Example 410, 1-(4-(4-((1S,4S)-2-oxa-5-azabicyclo[2.2.1]heptan-5-yl)-6-((R)-3-methylmorpholino)-1,3,5-triazin-2-yl)phenyl)-3-(pyridin-4-yl)urea] | 
8.62 | 9.02 | 5.26 | 7.27 | CN1CCN(c2ccc(NC(=O)Nc3ccc(-c4nc(N5CC6CCC(C5)O6)nc(N5CC6CCC(C5)O6)n4)cc3)cc2)CC1 [Example 28, 1-[4-(4,6-di-8-oxa-3-azabicyclo[3.2.1]oct-3-yl-1,3,5-triazin-2-yl)phenyl]-3-[4-(4-methylpiperazin-1-yl)phenyl]urea] | 
7.22 | 8.64 | 5.21 | 6.39 | COCCNc1nc(-c2ccc(NC(=O)Nc3cccnc3)cc2)nc(N2CC3CCC(C2)O3)n1 [Example 258, 1-(4-{4-[(2-methoxyethyl)amino]-6-(8-oxa-3-azabicyclo[3.2.1]oct-3-yl)-1,3,5-triazin-2-yl}phenyl)-3-pyridin-3-ylurea] | 
4.49 | 7.10 | 5.85 | 6.05 | NCCNc1nc(-c2ccc(NC(=O)Nc3cccnc3)cc2)nc(N2CC3CCC(C2)O3)n1 [Example 149, 1-(4-{4-[(2-aminoethyl)amino]-6-(8-oxa-3-azabicyclo[3.2.1]oct-3-yl)-1,3,5-triazin-2-yl}phenyl)-3-pyridin-3-ylurea] | 
7.92 | 9.68 | 5.41 | 6.19 | C[C@@H]1COCCN1c1nc(-c2ccc(NC(=O)Nc3cccnc3)cc2)nc(N2CCOC[C@H]2C)n1 [Example 398, 1-(4-(4,6-bis((R)-3-methylmorpholino)-1,3,5-triazin-2-yl)phenyl)-3-(pyridin-3-yl)urea] | 
6.15 | 7.08 | 5.52 | 6.75 | O=C(Nc1ccncc1)Nc1ccc(-c2nc(N3CCC(NCc4ccccc4)CC3)nc(N3CC4CCC(C3)O4)n2)cc1 [Example 117, 1-(4-{4-[4-(benzylamino)piperidin-1-yl]-6-(8-oxa-3-azabicyclo[3.2.1]oct-3-yl)-1,3,5-triazin-2-yl}phenyl)-3-pyridin-4-ylurea] | 
6.22 | 8.80 | 5.39 | 5.23 | CNC(=O)Nc1ccc(-c2nc(OC(COC)COC)nc(N3CC4CCC(C3)O4)n2)cc1 [Example 177, 1-(4-{4-[2-methoxy-1-(methoxymethyl)ethoxy]-6-(8-oxa-3-azabicyclo[3.2.1]oct-3-yl)-1,3,5-triazin-2-yl}phenyl)-3-methylurea] | 
6.49 | 7.15 and 7.96 | 5.57 | 5.85 | CN1CCN(c2ccc(Nc3nc(-c4ccc(NC(=O)NC5CC5)cc4)nc(N4CC5CCC(C4)O5)n3)cc2)CC1 [Example 316, 1-cyclopropyl-3-{4-[4-{[4-(4-methylpiperazin-1-yl)phenyl]amino}-6-(8-oxa-3-azabicyclo[3.2.1]oct-3-yl)-1,3,5-triazin-2-yl]phenyl}urea] | 
5.46 | 8.52 | 5.30 | 6.51 | O=C(Nc1ccc(-c2nc(OCCC3CCNCC3)nc(N3CC4CCC(C3)O4)n2)cc1)Nc1cccnc1 [Example 182, 1-{4-[4-(8-oxa-3-azabicyclo[3.2.1]oct-3-yl)-6-(2-piperidin-4-ylethoxy)-1,3,5-triazin-2-yl]phenyl}-3-pyridin-3-ylurea] | 
7.42 | 8.50 | 5.93 | 6.97 | COC(=O)N1CCN(c2nc(-c3ccc(NC(=O)Nc4ccncc4)cc3)nc(N3CC4CCC(C3)O4)n2)CC1 [Example 114, Methyl 4-[4-(8-oxa-3-azabicyclo[3.2.1]oct-3-yl)-6-{4-[(pyridin-4-ylcarbamoyl)amino]phenyl}-1,3,5-triazin-2-yl]piperazine-1-carboxylate] | 
9.00 | 8.85 | 6.08 | 6.35 | CCN1CCN(c2ccc(NC(=O)Nc3ccc(-c4nc(C5CCOCC5)nc(N5CCOC[C@H]5C)n4)cc3)cc2)CC1 [Example 428, (R)-1-(4-(4-ethylpiperazin-1-yl)phenyl)-3-(4-(4-(3-methylmorpholino)-6-(tetrahydro-2H-pyran-4-yl)-1,3,5-triazin-2-yl)phenyl)urea] | 
7.40 | 8.23 | 5.08 | 6.25 | CC(C)Nc1nc(-c2ccc(NC(=O)Nc3ccc(C(=O)NN4CCCC4)cc3)cc2)nc(N2CC3CCC(C2)O3)n1 [Example 219, 4-{[(4-{4-[(1-methylethyl)amino]-6-(8-oxa-3-azabicyclo[3.2.1]oct-3-yl)-1,3,5-triazin-2-yl}phenyl)carbamoyl]amino}-N-pyrrolidin-1-ylbenzamide] | 

SMILES | pIC50 [1] | pIC50 [2] | pIC50 ([3]; read-out: IC50 PI3Kγ) | pIC50 [4] | pIC50 [3]
O=C(Nc1ccncc1)Nc1ccc(-c2nc(C3CCOCC3)nc(N3C4CCC3COC4)n2)cc1 [Example 406, 1-(4-(4-(3-oxa-8-azabicyclo[3.2.1]octan-8-yl)-6-(tetrahydro-2H-pyran-4-yl)-1,3,5-triazin-2-yl)phenyl)-3-(pyridin-4-yl)urea] | 8.62 | 9.42 | 5.73 | 6.32 | 
C[C@@H]1COCCN1c1nc(-c2ccc(NC(=O)Nc3cccnc3)cc2)nc(N2C3CCC2COC3)n1 [Example 415, 1-(4-(4-(3-oxa-8-azabicyclo[3.2.1]octan-8-yl)-6-((R)-3-methylmorpholino)-1,3,5-triazin-2-yl)phenyl)-3-(pyridin-3-yl)urea] | 7.54 | 9.42 | 5.49 | 6.10 | 
CC(C)Nc1nc(-c2ccc(NC(=O)Nc3cccnc3)cc2)nc(N2C3CCC2COC3)n1 [Example 376, 1-(4-(4-(3-oxa-8-azabicyclo[3.2.1]octan-8-yl)-6-(isopropylamino)-1,3,5-triazin-2-yl)phenyl)-3-(pyridin-3-yl)urea] | 7.30 | 8.64 |  | 5.58 | < 5.00
CN(C)Cc1ccc(NC(=O)Nc2ccc(-c3nc(N4CCSCC4)nc(N4C5CCC4COC5)n3)cc2)cc1 [Example 395, 1-(4-(4-(3-oxa-8-azabicyclo[3.2.1]octan-8-yl)-6-thiomorpholino-1,3,5-triazin-2-yl)phenyl)-3-(4-((dimethylamino)methyl)phenyl)urea] | 6.23 | 7.85 | 5.65 | 6.23 | 
C[C@@H]1COCCN1c1nc(-c2ccc(NC(=O)Nc3ccc(N4CCN(C5CC5)CC4)cc3)cc2)nc(N2C3CCC2COC3)n1 [Example 442, 1-(4-(4-(3-oxa-8-azabicyclo[3.2.1]octan-8-yl)-6-((R)-3-methylmorpholino)-1,3,5-triazin-2-yl)phenyl)-3-(4-(4-cyclopropylpiperazin-1-yl)phenyl)urea] | 7.89 | 8.82 |  | 5.76 | < 5.00
NCCNc1ccc(NC(=O)Nc2ccc(-c3nc(N4C5CCC4COC5)nc(N4C5CCC4COC5)n3)cc2)cc1 [Example 461, 1-(4-(2-aminoethylamino)phenyl)-3-(4-(4,6-di(3-oxa-8-azabicyclo[3.2.1]octan-8-yl)-1,3,5-triazin-2-yl)phenyl)urea] | 7.17 | 8.96 | 5.36 | 6.32 | 
CC(C)N(C)c1nc(-c2ccc(NC(=O)Nc3ccc(CN(C)C)cc3)cc2)nc(N2C3CCC2COC3)n1 [Example 390, 1-(4-(4-(3-oxa-8-azabicyclo[3.2.1]octan-8-yl)-6-(isopropyl(methyl)amino)-1,3,5-triazin-2-yl)phenyl)-3-(4-((dimethylamino)methyl)phenyl)urea] | 6.19 | 7.92 | 5.63 | 5.61 | 
